From patent US10570179B2, “Substituted urea depsipeptide analogs as activators of the CLPP endopeptidase” (priority 2016, dated 2020) come the findings set out here.

Series [1] in a line: Microsomal metabolic stability. The class given is in vitro ADME, human. The protocol:
Compounds were initially prepared by dissolving them into DMSO at a final concentration of 10 mM. NADPH regenerating solutions A and B and mouse liver microsomes (CD-1) were obtained from BD Gentest (Woburn, Mass.). Ninety-six well deep well plates were obtained from MidWest Scientific Inc (Valley Park, Mo.).
Sample preparation for microsomal stability was modified from methods of Di, L., et al., Int J Pharm. 2005 Jun. 13; 297(1-2):110-9. A set of incubation times of 0, 15, 30, 60, 120, and 240 minutes were used. Mouse liver microsomal solutions were prepared by adding 58 μL of concentrated human or mouse liver microsomes (20 mg/mL protein concentration) to 1.756 mL of 0.1 M potassium phosphate buffer (pH 7.4) and 5 μL of 0.5 M EDTA to make a 0.6381 mg/mL (protein) microsomal solution. NADPH regenerating agent contained 113 μL of NADPH A, 23 μL of NADPH B, and 315 μL of 0.1 M potassium phosphate buffer (pH 7.4). The diluted test compound solutions (2 μL) were each added directly to a 1.79 mL of liver microsomal solution. This solution was mixed and 90 μL was transferred to 6 time points plates (each in triplicate wells). For the time 0 plate, 225 μL of cold acetonitrile with internal standard ([…] warfarin) was added to each well, followed by addition of NADPH regenerating agent (22.5 μL) and no incubation. For other five time points' plate, NADPH regenerating agent (22.5 μL) was added to each well to initiate the reaction. The plates were incubated at 37° C. for the required time, followed by quenching of the reaction by adding 225 μL of cold acetonitrile with internal standard (4 μg/ml warfarin). All of the plates were sealed and mixed well at 600 rpm for 10 minutes followed by centrifugation at 4000 rpm for 20 minutes. The supernatants (120 μL) were transferred to analytical plates for analysis by LCMS. LCMS conditions were described in the materials and instrumentation section above. The metabolic stability is evaluated via the half-life from least-squares fit of the multiple time points based on first-order kinetics.

Series [2] is described as follows: Solubility determination. Type of series: physicochemical. As to conditions: for solubility kinetic at 10 min: 22 °C, aqueous buffer, kinetic from dmso stock. The protocol:
Test compounds were synthesized and supplied by the Department of Chemical Biology and Therapeutics at St. Jude Children's Research Hospital (Memphis, Tenn.). LC-MS chromasolv grade acetonitrile (ACN) was purchased from Fisher Scientific (Loughborough, UK). LC-MS chromasolv grade formic acid was obtained from Sigma-Aldrich (St. Louis, Mo.). Milli-Q water as an ultrapure laboratory grade water was used in aqueous mobile phase.
Chromatographic separation was performed on an Acquity UPLC BEH C18 1.7 μm, 2.1×50 mm column (Waters Corporation, Milford, Mass.) using an Acquity ultra performance liquid chromatography system. The total flow rate was 0.9 mL/min. The sample injection volume was 10 μL. The UPLC column was maintained at 60° C. and the gradient program started at 90% A (0.1% formic acid in MilliQ H2O), changed to 70% A over 0.2 min, to 95% B (0.1% formic acid in ACN) over 1.4 minutes, held for 0.35 minutes, then to 90% A over 0.05 minutes.
Mass data was acquired with an Acquity SQD Mass Spectrometer. The mass spectrometer was operated in positive-ion mode with electrospray ionization. The conditions were as follows: capillary voltage 3.5 kV, cone voltage 30 V, source temperature 150° C., desolvation temperature 350° C., desolvation gas 500 L/hr, cone gas 25 L/hr. Data were acquired using Masslynx v. 4.1 and analyzed using the Quanlynx software suite. A full scan range from m/z=100-1000 in 0.2 s was used to acquire MS data. Both UV and Single ion recording mass spectrometry were used to determine the quantification of the samples.
Stock solutions were prepared by dissolving compounds into DMSO to yield a concentration of 10 mM. Stock solutions were stored at room temperature.
Calibration standards were made by adding stock solutions to DMSO for final concentrations of compounds at concentration of 100, 25, 6.25, 1.563, 0.391 and 0.098 μM.
Solubility test samples were made by adding stock solutions to 200 μL, of DPBS for final concentrations of compounds at 100 μM in a 96-well analytical plate (300 μL, maximum volume in each well). Samples were tested in triplicates. The plate was sealed, shaken at 600 rpm for 10 minutes, and then was centrifuged at 4000 rpm for 20 min at 22° C. 100 μL, of the supernatant was transferred to a new analytical 96-well plate and 10 μL, was injected onto the LCMS system.
Two calibration curves for solubility test samples were analyzed during the quantitation process. The linear regression of test compound peak areas was weighted by 1/x^2. […] Coefficient of determination (R^2) was used to evaluate the linearity of each calibration curve.

A short description of series [3]: Plasma stability assay. Type of series: in vitro ADME, mouse. The protocol: The plasma stability property of early drug discovery compounds can influence the in vivo efficacy of the test compounds/drugs. Human and/or mouse plasma degradation is determined using multiple time points to monitor the rate of disappearance of the parent compound during incubation.
Sample preparation for plasma stability was modified from Di et al. (2005) Int. J. Pharm. 297(1-2): 110-119. A set of incubation times of 0, 3, 24, and 48 hour were used. DMSO stock solutions of test compounds were prepared at 10 mM concentration. 1.8 μL of each test compound was each added directly to 1.8 mL of human/mouse plasma to get the final concentration of 10 μM. This compound/matrix was mixed and 70 μL was transferred to 8 time points plates (each in triplicate wells). For the Time 0 plate, 210 μL of cold acetonitrile with internal standard (4 μg/mL warfarin) was added to each well and no incubation needed. For other seven time points' plate, the plate was incubated at 37° C. for required time, followed by quenching of the reaction by adding 210 μL of cold acetonitrile with internal standard (4 μg/ml warfarin) to each well. All of the plates were sealed and mixed well at 600 rpm for 10 min and were centrifuged at 4000 rpm for 20 min. The supernatants (120 μL) were transferred to analytical plates for analysis by LCMS. Conditions for Waters ACQUITY-UPLC-MS-UV system was described separately. The plasma stability was evaluated via the half-life from least-squares fit of the multiple time points based on first-order kinetics.

The mark [4] stands for this setting: microsomal metabolic stability half-life, human liver microsomes.
The mark [5] stands for this setting: solubility in DPBS, 100 μM test samples, LCMS, read-out: LCMS.
Where [6] appears, read: plasma stability half-life, mouse plasma, 37° C.

In brackets after ≈: the same amount, converted by molar mass. Where two headings read alike, the source gives them in different places. Numbered stars: 1 amine (or outer) side, 2 acyl side, 3 side chain; on linkers, the order of the positions; unused ones are H or OH. Bridge positions count the residues as written; N and C are the ends. Square brackets hold non-standard residues; d marks the D form. Peptide text beside a SMILES is read from it. * marks the point of attachment. ξ: configuration not given here. Piperazine(2S-CO,4-Me) = CN1CCN[C@H](C(=O)O)C1; Phe(3-Me) = Cc1cccc(C[C@H](N)C(=O)O)c1; NH(4-Cl-2-F-phenyl) = Fc1cc(Cl)ccc1N*; Pro(4R-Me) = C[C@H]1CN[C@H](C(=O)O)C1; X1 = O=C([C@@H]1CSCCN1[*:1])[*:2]; Hyp = O=C(O)[C@@H]1C[C@@H](O)CN1; NH(4-Me-phenyl) = Cc1ccc(N*)cc1; ξNMeThr = CNC(C(=O)O)[C@@H](C)O; aThr = C[C@H](O)[C@H](N)C(=O)O; Pip = O=C(O)[C@@H]1CCCCN1; 4Abz = Nc1ccc(C(=O)O)cc1; X3 = c1cc2c(cc1N*)OCCO2; CO = O=C([*:1])[*:2]

Take `Cc1cccc(C[C@H](NC(=O)Nc2ccc(Cl)cc2F)C(=O)N[C@@H]2C(=O)N3CCC[C@H]3C(=O)N(C)C([C@@H](C)O)C(=O)N[C@@H](C)C(=O)N3C[C@H](C)C[C@H]3C(=O)O[C@H]2C)c1` (stereo partly drawn) [Compound 5] ({NH(4-Cl-2-F-phenyl)-CO}-[Phe(3-Me)][aThr]P[ξNMeThr]A[Pro(4R-Me)]; ester 2-C): the “Human” value in series [1] (human, pH 7.4) was 0.31 ± 0.03 h. In addition, in series [2], the “μsol (μM)” value was 22.5 ± 1.9 µM and the solubility kinetic at 10 min turned out to be 17.4 ± 0.4 µM (≈ 14.4 µg/mL). Also, in series [3] (mouse, 10 μM), the “Mouse” value is >50 h.

Take `Cc1ccc(NC(=O)N[C@@H](Cc2cccc(C)c2)C(=O)N[C@@H]2C(=O)N3C[C@H](O)C[C@H]3C(=O)N3CCN(C)C[C@H]3C(=O)N[C@@H](C)C(=O)N3C[C@H](C)C[C@H]3C(=O)O[C@H]2C)cc1` [Compound 30, (S)—N-((6AS,8R,12S,13S,15AS,17R,21S,23AS)-8-HYDROXY-2,13,17,21-TETRAMETHYL-6,11,15,20,23-PENTAOXOOCTADECAHYDRO-2H,6H,11H,15H-PYRAZINO[2,1-I]DIPYRROLO[2,1-C:2′,1′-L][1]OXA[4,7,10,13]TETRAAZACYCLOHEXADECIN-12-YL)-3-(M-TOLYL)-2-(3-(P-TOLYL)UREIDO)PROPANAMIDE] ({NH(4-Me-phenyl)-CO}-[Phe(3-Me)][aThr][Hyp][Piperazine(2S-CO,4-Me)]A[Pro(4R-Me)]; ester 2-C): the “Human” value in series [1] (setting [4]) was 1.30 ± .305 h. Besides, the solubility kinetic at 10 min in series [2] (setting [5]) turned out to be 68.8 ± 8.8 µM (≈ 56.2 µg/mL). In series [2] (solubility), the “μsol (μM)” value came to 54.5 ± 4.5 µM. Moreover, the “Mouse” value in series [3] (setting [6]) is >50 h.

`Cc1cccc(C[C@H](NC(=O)Nc2ccc(Cl)cc2F)C(=O)N[C@H]2COC(=O)[C@@H]3C[C@@H](C)CN3C(=O)[C@H](C)NC(=O)[C@@H]3CCCCN3C(=O)[C@@H]3C[C@H](N)CN3C2=O)c1` [Compound 12, (S)—N-((2R,6S,8AS,14AS,16S,20S,23AS)-16-AMINO-2,6-DIMETHYL-5,8,14,19,23-PENTAOXOOCTADECAHYDRO-1H,5H,14H,19H-PYRIDO[2,1-I]DIPYRROLO[2,1-C:2′,1′-L][1]OXA[4,7,10,13]TETRAAZACYCLOHEXADECIN-20-YL)-2-(3-(4-CHLORO-2-FLUOROPHENYL)UREIDO)-3-(M-TOLYL)PROPANAMIDE]: in series [1] (human, pH 7.4), the “Human” value is 3.34 ± 0.6 h. For the same compound, in series [2], the “μsol (μM)” value was 24.7 ± 3.7 µM and the solubility kinetic at 10 min was 37.5 ± 13 µM (≈ 30.9 µg/mL). In addition, the “Mouse” value in series [3] (mouse, 10 μM) is 18.63 h.

With `CCOC(=O)c1ccc(NC(=O)N[C@@H](Cc2cccc(C)c2)C(=O)N[C@@H]2C(=O)N3C[C@H](O)C[C@H]3C(=O)N3CCCC[C@H]3C(=O)N[C@@H](C)C(=O)N3C[C@H](C)C[C@H]3C(=O)O[C@H]2C)cc1` [Compound 36, ETHYL 4-(3-((S)-1-(((2R,6S,8AS,14AS,16R,20S,21S,23AS)-16-HYDROXY-2,6,21-TRIMETHYL-5,8,14,19,23-PENTAOXOOCTADECAHYDRO-1H,5H,14H,19H-PYRIDO[2,1-I]DIPYRROLO[2,1-C:2′,1′-L][1]OXA[4,7,10,13]TETRAAZACYCLOHEXADECIN-20-YL)AMINO)-1-OXO-3-(M-TOLYL)PROPAN-2-YL)UREIDO)BENZOATE] ({OEt-4Abz-CO}-[Phe(3-Me)][aThr][Hyp][Pip]A[Pro(4R-Me)]; ester 2-C), the “Human” value in series [1] (setting [4]) was 4.81 ± .815 h. In addition, the solubility kinetic at 10 min in series [2] (setting [5]) was 8.17 ± 0.167 µM (≈ 7.02 µg/mL). The “μsol (μM)” value in series [2] (solubility) was 6.4 ± .40 µM. In addition, the “Mouse” value in series [3] (setting [6]) amounted to 0.30 h.

For `Cc1cccc(C[C@H](NC(=O)Nc2ccc(Cl)cc2F)C(=O)N[C@@H]2C(=O)N3C[C@H](O)C[C@H]3C(=O)N3CCSC[C@H]3C(=O)N[C@@H](C)C(=O)N3C[C@H](C)C[C@H]3C(=O)O[C@H]2C)c1` [Compound 41, (S)-2-(3-(4-CHLORO-2-FLUOROPHENYL)UREIDO)-N-((6AS,8R,12S,13S,15AS,17R,21S,23AR)-8-HYDROXY-13,17,21-TRIMETHYL-6,11,15,20,23-PENTAOXOOCTADECAHYDRO-6H,11H,15H-DIPYRROLO[2,1-C:2′,1′-L][1,4]THIAZINO[3,4-I][1]OXA[4,7,10,13]TETRAAZACYCLOHEXADECIN-12-YL)-3-(M-TOLYL)PROPANAMIDE] ({NH(4-Cl-2-F-phenyl)-CO}-[Phe(3-Me)][aThr][Hyp][X1]A[Pro(4R-Me)]; ester 2-C), the “Human” value in series [1] (human, pH 7.4) is 0.41 ± .413 h. In series [2], the “μsol (μM)” value was 2.4 ± .40 µM and the solubility kinetic at 10 min is 1.4 ± 0.4 µM (≈ 1.2 µg/mL). For the same compound, the “Mouse” value in series [3] (mouse, 10 μM) was >50 h.

`Cc1cccc(C[C@H](NC(=O)Nc2ccc3c(c2)OCCO3)C(=O)N[C@@H]2C(=O)N3C[C@H](O)C[C@H]3C(=O)N3CCCC[C@H]3C(=O)N[C@@H](C)C(=O)N3C[C@H](C)C[C@H]3C(=O)O[C@H]2C)c1` [Compound 28, (S)-2-(3-(2,3-DIHYDROBENZO[B][1,4]DIOXIN-6-YL)UREIDO)-N-((2R,6S,8AS,14AS,16R,20S,21S,23AS)-16-HYDROXY-2,6,21-TRIMETHYL-5,8,14,19,23-PENTAOXOOCTADECAHYDRO-1H,5H,14H,19H-PYRIDO[2,1-I]DIPYRROLO[2,1-C:2′,1′-L][1]OXA[4,7,10,13]TETRAAZACYCLOHEXADECIN-20-YL)-3-(M-TOLYL)PROPANAMIDE] ({X3-CO}-[Phe(3-Me)][aThr][Hyp][Pip]A[Pro(4R-Me)]; ester 2-C): in series [1] (human, pH 7.4), the “Human” value is 0.18 ± .185 h. Further, in series [2], the “μsol (μM)” value stood at 30.2 ± 0.2 µM and the solubility kinetic at 10 min was 34.7 ± 4.7 µM (≈ 29.4 µg/mL). Besides, the “Mouse” value in series [3] (mouse, 10 μM) was >50 h.
